The assay addresses Axl kinase (Homo sapiens (Human), UniProt P30530). Nature of the assay: Axl kinase assay (AlphaScreen). To be noted: activity level class. The assay is classed as biochemical. (In general: In Alpha technology, singlet oxygen from a donor bead excites a nearby acceptor bead.)

Some results are limits rather than exact numbers.

Usually IC50 stands for the concentration at which inhibition is half-maximal. Read a high IC50 as weaker potency in that assay.

Chain of Axl kinase (P30530 26-894): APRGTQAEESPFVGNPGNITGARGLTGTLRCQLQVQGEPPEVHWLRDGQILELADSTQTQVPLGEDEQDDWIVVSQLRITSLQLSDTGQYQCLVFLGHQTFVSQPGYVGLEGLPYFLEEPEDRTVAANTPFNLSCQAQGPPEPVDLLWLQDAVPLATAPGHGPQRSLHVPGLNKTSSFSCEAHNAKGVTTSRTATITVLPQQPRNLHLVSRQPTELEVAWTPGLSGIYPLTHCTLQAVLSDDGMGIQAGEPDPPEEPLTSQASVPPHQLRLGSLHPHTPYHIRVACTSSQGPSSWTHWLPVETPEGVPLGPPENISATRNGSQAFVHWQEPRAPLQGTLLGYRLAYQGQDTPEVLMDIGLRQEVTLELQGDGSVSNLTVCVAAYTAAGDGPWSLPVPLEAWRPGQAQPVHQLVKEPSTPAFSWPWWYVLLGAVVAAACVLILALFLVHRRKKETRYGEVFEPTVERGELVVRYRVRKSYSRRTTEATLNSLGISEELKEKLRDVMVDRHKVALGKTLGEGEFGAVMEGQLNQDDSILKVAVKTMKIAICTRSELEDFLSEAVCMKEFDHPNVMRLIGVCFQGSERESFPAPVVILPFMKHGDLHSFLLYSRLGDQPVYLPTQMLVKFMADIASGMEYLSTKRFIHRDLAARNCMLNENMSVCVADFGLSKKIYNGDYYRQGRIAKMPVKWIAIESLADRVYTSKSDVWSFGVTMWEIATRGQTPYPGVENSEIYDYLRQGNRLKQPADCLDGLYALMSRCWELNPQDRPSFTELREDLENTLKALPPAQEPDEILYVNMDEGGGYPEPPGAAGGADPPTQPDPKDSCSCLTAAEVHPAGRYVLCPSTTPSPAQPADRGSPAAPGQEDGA

`COCCOc1nc(Nc2ccc(CN3CCN(C)CC3)cc2)nc2[nH]cc(-c3ccc(S(=O)(=O)N(C)C)cc3F)c12` [Compound 91, 3-fluoro-4-(4-(2-methoxyethoxy)-2-((4-((4-methylpiperazin-1-yl)methyl)phenyl)amino)-7H-pyrrolo[2,3-d]pyrimidin-5-yl)-N,N-dimethylbenzene-sulfonamide]: the IC50 is under 30 nM.

On to `COCCOc1nc(Nc2ccc(CN3CCN(C)CC3)cc2)nc2[nH]cc(-c3ccc(OCc4ccccn4)cc3F)c12` [Compound 92, 5-(2-fluoro-4-(pyridin-2-ylmethoxy)phenyl)-4-(2-methoxyethoxy)-N-(4-((4-methylpiperazin-1-yl)methyl)phenyl)-7H-pyrrolo[2,3-d]pyrimidin-2-amine], for which the IC50 was under 30 nM.

`COCCOc1nc(Nc2ccc(CN3CCN(C)CC3)cc2)nc2[nH]cc(-c3ccc4c(cnn4C)c3)c12` [Compound 97, 4-(2-methoxyethoxy)-5-(1-methyl-7H-indazol-5-yl)-N-(4-((4-methylpiperazin-1-yl)methyl)phenyl)-7H-pyrrolo[2,3-d]pyrimidin-2-amine]: the IC50 is under 30 nM.

In turn, `COCCOc1nc(Nc2ccc(CN3CCN(C)CC3)cc2)nc2[nH]cc(-c3ccc(OCc4cccc(C)n4)cc3F)c12` [Compound 103, 5-(2-fluoro-4-((6-methylpyridin-2-yl)methoxy)phenyl)-4-(2-methoxyethoxy)-N-(4-((4-methylpiperazin-1-yl)methyl)phenyl)-7H-pyrrolo[2,3-d]pyrimidin-2-amine] returned a concentration for half-maximal inhibition (IC50) of under 30 nM.

For the compound `COCCOc1nc(Nc2ccc(CN3CCN(C)CC3)cc2)nc2[nH]cc(-c3ccc(OCc4cccc(F)n4)cc3F)c12` [Compound 104, 5-(2-fluoro-4-((6-fluoropyridin-2-yl)methoxy)phenyl)-4-(2-methoxyethoxy)-N-(4-((4-methylpiperazin-1-yl)methyl)phenyl)-7H-pyrrolo[2,3-d]pyrimidin-2-amine], the IC50 was under 30 nM.

`COCCOc1nc(Nc2ccc(CN3CCN(C)CC3)cc2)nc2[nH]cc(-c3ccc(OCc4ccc(C)cn4)cc3F)c12` [Compound 105, 5-(2-fluoro-4-((5-methylpyridin-2-yl)methoxy)phenyl)-4-(2-methoxyethoxy)-N-(4-((4-methylpiperazin-1-yl)methyl)phenyl)-7H-pyrrolo[2,3-d]pyrimidin-2-amine] returned an IC50 of under 30 nM.

On to `COCCOc1nc(Nc2ccc(CN3CCN(C)CC3)cc2)nc2[nH]cc(-c3ccc(OCc4ncccn4)cc3F)c12` [Compound 107, 5-(2-fluoro-4-(pyrimidin-2-ylmethoxy)phenyl)-4-(2-methoxyethoxy)-N-(4-((4-methylpiperazin-1-yl)methyl)phenyl)-7H-pyrrolo[2,3-d]pyrimidin-2-amine], for which the IC50 was under 30 nM.

The compound `COCCOc1nc(Nc2ccc(CN3CCN(C)CC3)cc2)nc2[nH]cc(-c3ccc(OCc4ccccn4)cc3)c12` [Compound 110, 4-(2-methoxyethoxy)-N-(4-((4-methylpiperazin-1-yl)methyl)phenyl)-5-(4-(pyridin-2-ylmethoxy)phenyl)-7H-pyrrolo[2,3-d]pyrimidin-2-amine] registered an IC50 of under 30 nM.

For the compound `COCCOc1nc(Nc2ccc(CN3CCC(C)CC3)cc2)nc2[nH]cc(-c3ccc(OCc4ncccc4C)cc3F)c12` [Compound 111, 5-(2-fluoro-4-((3-methylpyridin-2-yl)methoxy)phenyl)-4-(2-methoxyethoxy)-N-(4-((4-methylpiperidin-1-yl)methyl)phenyl)-7H-pyrrolo[2,3-d]pyrimidin-2-amine], the IC50 was under 30 nM.

For the compound `CCN1CCN(Cc2ccc(Nc3nc(OCCOC)c4c(-c5ccc(OCc6ncccc6C)cc5F)c[nH]c4n3)cc2)CC1` [Compound 112, N-(4-((4-ethylpiperazin-1-yl)methyl)phenyl)-5-(2-fluoro-4-((3-methylpyridin-2-yl)methoxy)phenyl)-4-(2-methoxyethoxy)-7H-pyrrolo[2,3-d]pyrimidin-2-amine], the IC50 was under 30 nM.

The values are drawn from patent US11407757B2, “Heterocycle compounds as Tyro3, Axl and MerTK (TAM) family of receptor tyrosine kinase inhibitors” (Development Center for Biotechnology, priority 2017, dated 2022).
